For the assay, the target named is T1, human TLR9 (Homo sapiens, UniProt Q9NR96).
T1 sequence (Q9NR96 26-1032): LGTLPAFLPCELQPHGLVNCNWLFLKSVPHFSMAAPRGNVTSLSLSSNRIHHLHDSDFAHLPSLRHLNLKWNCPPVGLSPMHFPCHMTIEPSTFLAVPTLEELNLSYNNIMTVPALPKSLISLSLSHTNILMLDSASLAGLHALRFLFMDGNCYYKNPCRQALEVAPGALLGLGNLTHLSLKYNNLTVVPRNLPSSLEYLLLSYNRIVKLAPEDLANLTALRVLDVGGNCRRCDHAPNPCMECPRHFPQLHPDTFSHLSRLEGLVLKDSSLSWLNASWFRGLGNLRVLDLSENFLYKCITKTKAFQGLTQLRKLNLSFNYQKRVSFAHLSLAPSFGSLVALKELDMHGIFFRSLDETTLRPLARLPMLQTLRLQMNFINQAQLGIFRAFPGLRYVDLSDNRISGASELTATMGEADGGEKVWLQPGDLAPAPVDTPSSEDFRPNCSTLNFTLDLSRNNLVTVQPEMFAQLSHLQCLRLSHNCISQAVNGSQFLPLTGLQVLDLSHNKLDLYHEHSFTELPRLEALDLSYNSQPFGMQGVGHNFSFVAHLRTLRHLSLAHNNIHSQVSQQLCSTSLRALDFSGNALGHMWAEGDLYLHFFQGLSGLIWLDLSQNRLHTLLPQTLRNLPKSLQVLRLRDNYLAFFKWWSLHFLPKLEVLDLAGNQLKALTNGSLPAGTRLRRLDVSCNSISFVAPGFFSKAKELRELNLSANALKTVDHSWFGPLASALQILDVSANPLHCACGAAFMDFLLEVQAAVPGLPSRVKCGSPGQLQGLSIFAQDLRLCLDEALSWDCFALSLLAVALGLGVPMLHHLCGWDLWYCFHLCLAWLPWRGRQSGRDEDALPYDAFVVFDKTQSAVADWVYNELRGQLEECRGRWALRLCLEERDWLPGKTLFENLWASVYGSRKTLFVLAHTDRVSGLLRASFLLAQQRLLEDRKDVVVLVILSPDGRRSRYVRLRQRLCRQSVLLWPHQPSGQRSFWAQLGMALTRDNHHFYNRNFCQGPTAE
Put plainly: HEK293-Blue-hTLR-9 cells assay (SEAP reporter, ODN2006 stimulation). It counts as cell-based. The note with it: HEK293-Blue-hTLR9 cells, ODN2006, 20 hrs. The protocol: The following tests were carried out in order to determine the activity of the compounds of this invention in HEK293-Blue-hTLR-7/8/9 cells assay.
HEK293-Blue-hTLR-9 Cells Assay:
A stable HEK293-Blue-hTLR-9 cell line was purchased from InvivoGen (Cat. #: hkb-htlr9, San Diego, Calif., USA). These cells were originally designed for studying the stimulation of human TLR9 by monitoring the activation of NF-κB. A SEAP (secreted embryonic alkaline phosphatase) reporter gene was placed under the control of the IFN-β minimal promoter fused to five NF-κB and AP-1-binding sites. The SEAP was induced by activating NF-κB and AP-1 via stimulating HEK-Blue hTLR9 cells with TLR9 ligands. Therefore the reporter expression was declined by TLR9 antagonist under the stimulation of a ligand, such as ODN2006 (Cat. #: tlr1-2006-1, Invivogen, San Diego, Calif., USA), for incubation of 20 hrs. The cell culture supernatant SEAP reporter activity was determined using QUANTI-Blue™ kit (Cat. #: rep-qb1, Invivogen, San Diego, Calif., USA) at a wavelength of 640 nm, a detection medium that turns purple or blue in the presence of alkaline phosphatase.
HEK293-Blue-hTLR9 cells were incubated at a density of 250,000˜450,000 cells/mL in a volume of 170 μL in a 96-well plate in Dulbecco's Modified Eagle's medium (DMEM) containing 4.5 g/L glucose, 50 U/mL penicillin, […], 2 mM L-glutamine, 10% (v/v) heat-inactivated fetal bovine serum with addition of 20 μL test compound in a serial dilution in the presence of final DMSO at 1% and 10 μL of 20 uM ODN2006 in above DMEM, perform incubation under 37° C. in a CO2 incubator for 20 hrs. Then 20 μL of the supernatant from each well was incubated with 180 μL Quanti-blue substrate solution at 37° C. for 2 hrs and the absorbance was read at 620˜655 nm using a spectrophotometer. The signalling pathway that TLR9 activation leads to downstream NF-κB activation has been widely accepted, and therefore similar reporter assay was modified for evaluating TLR9 antagonist.
What is called IC50 is the concentration needed to halve the response being measured. For the compound `C[C@H]1C[C@@H](NCc2ccc(N3CCNCC3)cc2)CN(c2ccc(C#N)c3nccnc23)C1` [Example 3, 8-[(3S,5R)-3-methyl-5-[(4-piperazin-1-ylphenyl)methylamino]-1-piperidyl]quinoxaline-5-carbonitrile], the IC50 worked out at 0.077 µM. Consider `C[C@H]1C[C@@H](NCc2ccc(N3CCNCC3)cc2)CN(c2ccc(Cl)c3ncccc23)C1` [Example 22, (3R,5S)-1-(8-chloro-5-quinolyl)-5-methyl-N-[(4-piperazin-1-ylphenyl)methyl]piperidin-3-amine], for which the IC50 turned out to be 0.183 µM. As to `C[C@H]1C[C@@H](N2Cc3ccc(N4CCNCC4)cc3C2)CN(c2ccc(C#N)c3ncccc23)C1` [Example 12, 5-[(3S,5R)-3-methyl-5-(5-piperazin-1-ylisoindolin-2-yl)-1-piperidyl]quinoline-8-carbonitrile], the midpoint of inhibition, the IC50, lay at 0.073 µM. In turn, `C[C@H]1C[C@@H](NCc2ccc(N3CCNCC3)cn2)CN(c2ccc(C#N)c3ncccc23)C1` [Example 5, 5-[(3S,5R)-3-methyl-5-[(5-piperazin-1-yl-2-pyridyl)methylamino]-1-piperidyl]quinoline-8-carbonitrile] returned an IC50 of 0.068 µM. In the case of `C[C@H]1C[C@@H](NCc2ccc(N3CCN(C)CC3)cc2)CN(c2ccc(C#N)c3ncccc23)C1` [Example 7, 5-[(3S,5R)-3-methyl-5-[[4-(4-methylpiperazin-1-yl)phenyl]methylamino]-1-piperidyl]quinoline-8-carbonitrile] it was 0.069 µM.

Source of the values: patent US20220395496A1 (Hoffmann-La Roche Inc., priority 2019, published 2022).
